This passage reports IC50 results from US9765092B2, “Tricyclic piperidine compounds” (ACTELION PHARMACEUTICALS LTD, priority 2013, dated 2017).

The assay has as its target human TPH1 (Homo sapiens (Human), UniProt P17752). The assay is described as follows: Biochemical in vitro assay using fluorescence readout (TPH1 inhibition). The conditions noted are these: human TPH1, fluorescence readout. An excerpt: Biochemical In Vitro Assay Using Fluorescence Readout
To generate the enzyme, full length human TPH1 is cloned into the plasmid pET20b(+) (Novagen) and expressed in E. coli. The bacterial cells are ruptured by sonication on ice and the lysate is cleared by centrifugation. The resulting protein in the pellet is re-extracted and TPH1 is purified from the obtained lysate by affinity chromatography using a pterin cosubstrate analog immobilized to the resin of the column. The protein is further purified by size exclusion chromatography to remove protein aggregates. The activity of TPH1 is determined by using a fluorescence assay. The enzyme activity assay is carried out at 15° C. with atmosphere oxygen for the duration of 60 minutes in a volume of 64 μl. The reaction is carried out in a 0.1 M Tris-HCl buffer, adjusted to pH 7.6, containing 1 mM DTT, 0.2 mg/mL catalase, 100 μM (±)-6-methyl-5,6,7,8-tetrahydropterine dihydrochloride, 40 μM L-tryptophan, and 40-80 nM of TPH1. The reaction is started by bringing together L-tryptophan with all the other reaction substituents and stopped by quenching with perchloric acid (HClO4). The amount of 5-hydroxy-L-tryptophan produced during the enzymatic reaction is determined by fluorescence readout. Fluorescence, as determined at 540 nm when excited at 300 nm wavelength, increases proportionally to the 5-hydroxy-L-tryptophan formed. Compounds are prepared as 10 mM stock solution in DMSO, then diluted in 384-well plates using DMSO followed by a transfer of the dilutions into the assay plate. Fluorescence is measured for each well and the fluorescence at 540 nm wavelength is compared to the fluorescence of the vehicle in place of compound. Inhibitory activities of example compounds with respect to the TPH1 protein are determined by calculating the IC50 value (the concentration of compound needed to inhibit 50% of the enzyme activity). The calculated IC50 values may fluctuate depending on the daily biochemical assay performance. Fluctuations of this kind are known to those skilled in the art.

Chain of human TPH1 (P17752 whole entry): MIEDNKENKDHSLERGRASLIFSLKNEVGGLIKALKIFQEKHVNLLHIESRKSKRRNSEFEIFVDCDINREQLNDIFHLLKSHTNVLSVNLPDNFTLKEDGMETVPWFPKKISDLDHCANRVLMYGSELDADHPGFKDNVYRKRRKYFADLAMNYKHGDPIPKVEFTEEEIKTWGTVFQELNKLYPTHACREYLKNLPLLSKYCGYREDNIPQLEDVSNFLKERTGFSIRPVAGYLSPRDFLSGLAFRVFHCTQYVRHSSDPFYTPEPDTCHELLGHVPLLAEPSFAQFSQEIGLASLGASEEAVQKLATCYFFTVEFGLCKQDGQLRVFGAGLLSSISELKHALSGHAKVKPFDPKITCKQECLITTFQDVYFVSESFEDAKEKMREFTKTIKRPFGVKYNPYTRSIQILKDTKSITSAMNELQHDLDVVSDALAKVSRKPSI

For orientation: IC50 means the concentration that inhibits the measured activity by half. Higher therefore signals lower potency. As to `Cc1nn2c3c(nc2s1)CCN(C(=O)COc1ccc(NS(=O)(=O)N(C)C)nc1Cl)C3c1ccc(Cl)cc1F` (stereo not drawn) [Example 1.4.50, N-(6-chloro-5-(2-(5-(4-chloro-2-fluorophenyl)-2-methyl-7,8-dihydro-[1,3,4]thiadiazolo[2′,3′:2,3]imidazo[4,5-c]pyridin-6(5H)-yl)-2-oxoethoxy)pyridin-2-yl)-N′,N′-dimethyl-sulfamide], the IC50 was 78 nM.

As to `Cc1nn2c3c(nc2s1)CCN(C(=O)COc1ccc(C(F)(F)F)nc1Cl)C3c1ccc(Cl)nc1F` (stereo not drawn) [Example 1.16.4, 1-(5-(6-chloro-2-fluoropyridin-3-yl)-2-methyl-7,8-dihydro-[1,3,4]thiadiazolo[2′,3′:2,3]imidazo[4,5-c]pyridin-6(5H)-yl)-2-((2-chloro-6-(trifluoromethyl)pyridin-3-yl)oxy)ethanone], the IC50 came out at 27 nM. For `Cc1cnc(C2c3c(nc4sc(C)nn34)CCN2C(=O)COc2ccc(NS(C)(=O)=O)nc2Cl)c(F)c1` (stereo not drawn) [Example 1.31.8, N-(6-chloro-5-(2-(5-(3-fluoro-5-methylpyridin-2-yl)-2-methyl-7,8-dihydro-[1,3,4]thiadiazolo[2′,3′:2,3]imidazo[4,5-c]pyridin-6(5H)-yl)-2-oxoethoxy)pyridin-2-yl)methanesulfonamide] the value was 9 nM. `Cc1cnc(C2c3c(nc4sc(C)nn34)CCN2C(=O)COc2ccc(C(F)(F)F)cc2Cl)c(F)c1` (stereo not drawn) [Example 1.31.1, 2-(2-chloro-4-(trifluoromethyl)phenoxy)-1-(5-(3-fluoro-5-methylpyridin-2-yl)-2-methyl-7,8-dihydro-[1,3,4]thiadiazolo [2′,3′:2,3]imidazo[4,5-c]pyridin-6(5H)-yl)ethanone] gave a half-inhibitory concentration (IC50) of 14 nM. As to `Cc1nn2c3c(nc2s1)CCN(C(=O)COc1ccc(N2CCOCC2)nc1Cl)C3c1cnc(OC(F)F)cc1C` (stereo not drawn) [Example 1.15.2, 2-((2-chloro-6-morpholinopyridin-3-yl)oxy)-1-(5-(6-(difluoromethoxy)-4-methylpyridin-3-yl)-2-methyl-7,8-dihydro-[1,3,4]thiadiazolo[2′,3′:2,3]imidazo[4,5-c]pyridin-6(5H)-yl)ethanone], half-maximal inhibition (IC50) required 7 nM. The same measure for `O=C(COc1cccc(C(F)(F)F)c1Cl)N1CCc2nc3sccn3c2C1c1nc2ccccc2s1` (stereo not drawn) [Example 6.12.5, 1-(5-(benzo[d]thiazol-2-yl)-7,8-dihydrothiazolo-[2′,3′:2,3]imidazo[4,5-c]pyridin-6(5H)-yl)-2-(2-chloro-3-(trifluoromethyl)phenoxy)ethanone]: 28 nM; for `Cc1nn2c3c(nc2s1)CCN(C(=O)COc1cc(F)c(N2CCOCC2)nc1Cl)C3c1ncc(C2CC2)cc1F` (stereo not drawn) [Example 1.14.9, 2-((2-chloro-5-fluoro-6-morpholinopyridin-3-yl)oxy)-1-(5-(5-cyclopropyl-3-fluoropyridin-2-yl)-2-methyl-7,8-dihydro-[1,3,4]thiadiazolo[2′,3′:2,3]imidazo[4,5-c]pyridin-6(5H)-yl)ethanone]: 4 nM; for `CCc1nc(C(=O)NC2CC2)ccc1OCC(=O)N1CCc2nc3sc(CF)nn3c2C1c1sc(C)nc1C` (stereo not drawn) [Example 7.4.1, N-cyclopropyl-5-(2-(5-(2,4-dimethylthiazol-5-yl)-2-(fluoromethyl)-7,8-dihydro-[1,3,4]thiadiazolo[2′,3′:2,3]imidazo[4,5-c]pyridin-6(5H)-yl)-2-oxoethoxy)-6-ethylpicolinamide]: 7 nM. The same measure for `Cc1nn2c3c(nc2s1)CCN(C(=O)COc1ccc(N(C)C)nc1Cl)C3c1ccc(Cl)nc1F` (stereo not drawn) [Example 1.16.1, 1-(5-(6-chloro-2-fluoropyridin-3-yl)-2-methyl-7,8-dihydro-[1,3,4]thiadiazolo[2′,3′:2,3]imidazo[4,5-c]pyridin-6(5H)-yl)-2-((2-chloro-6-(dimethylamino)pyridin-3-yl)oxy)ethanone]: 5 nM; for `Cc1nn2c3c(nc2s1)CCN(C(=O)COc1ccc(N2CCCC2)nc1C)C3c1ccc(C2CC2)cc1F` (stereo not drawn) [Example 1.6.16, 1-(5-(4-cyclopropyl-2-fluorophenyl)-2-methyl-7,8-dihydro-[1,3,4]thiadiazolo[2′,3′:2,3]imidazo[4,5-c]pyridin-6(5H)-yl)-2-((2-methyl-6-(pyrrolidin-1-yl)pyridin-3-yl)oxy)ethanone]: 13 nM. The same measure for `Cc1nn2c3c(nc2s1)CCN(C(=O)COc1ccc(N2CCOCC2)nc1Cl)C3c1nc(C(=O)N(C)C)cs1` (stereo not drawn) [Example 1.18.1, 2-(6-(2-((2-chloro-6-morpholinopyridin-3-yl)oxy)acetyl)-2-methyl-5,6,7,8-tetrahydro-[1,3,4]thiadiazolo[2′,3′:2,3]imidazo[4,5-c]pyridin-5-yl)-N,N-dimethylthiazole-4-carboxamide]: 14 nM; for `COc1ccc(C2c3c(nc4sc(C)nn34)CCN2C(=O)COc2ccc3ccccc3c2)cc1OC` (stereo not drawn) [Example 1.1.1, 1-(5-(3,4-dimethoxyphenyl)-2-methyl-7,8-dihydro-[1,3,4]thiadiazolo[2′,3′:2,3]imidazo[4,5-c]pyridin-6(5H)-yl)-2-(naphthalen-2-yloxy)ethanone]: 10 nM; for `COC(=O)c1cnc(C2c3c(nc4sc(C)nn34)CCN2C(=O)COc2ccc(N3CCOCC3)nc2Cl)s1` (stereo not drawn) [Example 1.28.1, Methyl 2-(6-(2-((2-chloro-6-morpholinopyridin-3-yl)oxy)acetyl)-2-methyl-5,6,7,8-tetrahydro-[1,3,4]thiadiazolo [2′,3′:2,3]imidazo[4,5-c]pyridin-5-yl)thiazole-5-carboxylate]: 7 nM. Molecule `COC(=O)c1ccc(OCC(=O)N2CCc3nc4sc(C)nn4c3C2c2ccc(Cl)cc2F)c(Cl)n1` (stereo not drawn) [Example 1.4.8, Methyl 6-chloro-5-(2-(5-(4-chloro-2-fluorophenyl)-2-methyl-7,8-dihydro-[1,3,4]thiadiazolo[2′,3′:2,3]imidazo[4,5-c]pyridin-6(5H)-yl)-2-oxoethoxy)picolinate] showed an IC50 of 32 nM.

For `CCc1ncccc1OCC(=O)N1CCc2nc3sccn3c2C1c1ccc(C(F)F)cc1F` (stereo not drawn) [Example 6.16.1, 1-(5-(4-(difluoromethyl)-2-fluorophenyl)-7,8-dihydro-thiazolo[2′,3′:2,3]imidazo[4,5-c]pyridin-6(5H)-yl)-2-((2-ethylpyridin-3-yl)oxy)ethanone], the concentration for half-maximal inhibition (IC50) was 14 nM. In the case of `Cc1nn2c3c(nc2s1)CCN(C(=O)COc1ccnc2c(C)c(Cl)ccc12)C3c1ccc(Cl)cc1F` (stereo not drawn) [Example 1.4.64, 1-(5-(4-chloro-2-fluorophenyl)-2-methyl-7,8-dihydro-[1,3,4]thiadiazolo[2′,3′:2,3]imidazo[4,5-c]pyridin-6(5H)-yl)-2-((7-chloro-8-methylquinolin-4-yl)oxy)ethan-1-one], the half-inhibitory concentration (IC50) was 255 nM.

In the case of `Cc1nn2c3c(nc2s1)CCN(C(=O)COc1ccc(NS(C)(=O)=O)cc1Cl)C3c1ncc(Cl)cc1F` (stereo not drawn) [Example 1.33.7, N-(3-chloro-4-(2-(5-(5-chloro-3-fluoropyridin-2-yl)-2-methyl-7,8-dihydro-[1,3,4]thiadiazolo[2′,3′:2,3]imidazo[4,5-c]pyridin-6(5H)-yl)-2-oxoethoxy)phenyl)methanesulfonamide], the concentration for half-maximal inhibition (IC50) was determined as 13 nM. The same measure for `Cc1nn2c3c(nc2s1)CCN(C(=O)COc1ccc(N(C)S(C)(=O)=O)nc1Cl)C3c1ccc(Cl)cc1F` (stereo not drawn) [Example 1.4.48, N-(6-chloro-5-(2-(5-(4-chloro-2-fluorophenyl)-2-methyl-7,8-dihydro-[1,3,4]thiadiazolo[2′,3′:2,3]imidazo[4,5-c]pyridin-6(5H)-yl)-2-oxoethoxy)pyridin-2-yl)-N-methylmethanesulfonamide]: 10 nM; for `Cc1nn2c3c(nc2s1)CCN(C(=O)COc1ccc(C(F)(F)F)cc1Cl)C3c1sc(C(=O)N(C)C)cc1F` (stereo not drawn) [Example 1.24.3, 5-(6-(2-(2-chloro-4-(trifluoromethyl)phenoxy)acetyl)-2-methyl-5,6,7,8-tetrahydro-[1,3,4]thiadiazolo[2′,3′:2,3]imidazo[4,5-c]pyridin-5-yl)-4-fluoro-N,N-dimethylthiophene-2-carboxamide]: 8 nM. Turning to `Cc1nc(C)c(C2c3c(nc4sc(C)nn34)CCN2C(=O)COc2ccc(NS(C)(=O)=O)nc2Cl)s1` (stereo not drawn) [Example 1.68.2, N-(6-chloro-5-(2-(5-(2,4-dimethylthiazol-5-yl)-2-methyl-7,8-dihydro-[1,3,4]thiadiazolo[2′,3′:2,3]imidazo[4,5-c]pyridin-6(5H)-yl)-2-oxoethoxy)pyridin-2-yl)methanesulfonamide], the IC50 stood at 9 nM. For `CCc1nc(C)ccc1OCC(=O)N1CCc2nc3sccn3c2C1c1ccc(C(F)(F)F)nc1C` (stereo not drawn) [Example 6.17.1, 2-((2-ethyl-6-methylpyridin-3-yl)oxy)-1-(5-(2-methyl-6-(trifluoromethyl)pyridin-3-yl)-7,8-dihydrothiazolo-[2′,3′:2,3]imidazo[4,5-c]pyridin-6(5H)-yl)ethanone] the value was 194 nM.
